From PubChem BioAssay (NCI)
“And” between values parts separate entries of the source, which are not always exact repeats. Equal values may be shown once.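 Each compound was tested at five concentrations against cells in 96-well plates for 48 hours. The concentration for 50% growth inhibition is given as GI50. The concentration for full growth arrest is given as TGI.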

Experiments:
Assay in all cases: NCI tumour cell line growth inhibition, 48 h
[1] = system: HCT-15 colon
[2] = system: LOX IMVI melanoma
[3] = system: SK-MEL-2 melanoma
[4] = system: OVCAR-3 ovarian
[5] = system: BT-549 breast
[6] = system: M14 melanoma
[7] = system: NCI-H23 lung
[8] = system: MDA-MB-435
[9] = system: COLO 205 colon
[10] = system: A549 NSCLC

Row | Structure (SMILES) | TGI [1] [µM] | TGI [2] [µM] | TGI [3] | TGI [4] | TGI [5] | TGI [6] | TGI [7] | TGI [8] | TGI [9] | TGI [10] [µM] | GI50 [4]
1 | O=c1[nH]c2ccc(CC(=S)N3CCOCC3)cc2s1 | > 100 | > 100 | > 100 µM | > 100 µM | > 100 µM | > 100 µM | > 100 µM | > 100 µM | > 100 µM | – | –
2 | C/C(=N\Nc1ccc([N+](=O)[O-])cc1[N+](=O)[O-])c1ccc2ccccc2n1 | > 100 | – | > 100 µM | – | > 100 µM | > 100 µM | > 100 µM | > 100 µM | > 100 µM | > 100 | –
3 | N#CCC(=O)Nn1c(CC#N)nnc1Cc1ccccc1 | > 100 | – | > 100 µM | > 100 µM | > 100 µM | > 100 µM | > 100 µM | > 100 µM | – | > 100 | –
4 | CCOc1ccc2c(c1)/C(=C(\C(Cl)=C(Cl)Cl)[N+](=O)[O-])N2 | > 100 | – | > 100 µM | > 100 µM | > 100 µM | > 100 µM | > 100 µM | > 100 µM | > 100 µM | > 100 | –
5 | Cc1ccc(C(=O)C(C)N)cc1 (centres undefined) | > 100 | > 100 | > 100 µM | > 100 µM | – | > 100 µM | > 100 µM | – | > 100 µM | > 100 | –
6 | CC1C(c2ccc3c(c2)OCO3)c2cc3c(cc2OC1N1CCCC1)OCO3 (centres undefined) | > 100 | > 100 | 90.4 µM | > 100 µM | – | 57.6 µM | > 100 µM | 23.7 µM | > 100 µM | > 100 | –
7 | NNC(=O)CNC(=O)CSc1nnc(COc2ccc(Cl)cc2)n1-c1ccccc1 | > 100 | > 100 | > 100 µM | > 100 µM | – | > 100 µM | > 100 µM | > 100 µM | > 100 µM | > 100 | –
8 | COc1cc([C@@H]2c3cc4c(cc3[C@@H](NCCNCCO)[C@H]3COC(=O)[C@H]23)OCO4)cc(OC)c1O | > 100 | – | > 26.9 µM and 4.89 µM | > 66.9 µM and 11.1 µM | 7.03 µM and 5.49 µM | 28.1 µM and 20.2 µM | 9.94 µM and 10.8 µM | 35 µM and 31.6 µM | 24 µM and 24.5 µM | > 100 | 7.28 µM and 2.31 µM
9 | O=C(/C=C/c1ccc(O)c(O)c1)OCCc1cccc2ccccc12 | 9.64 | – | 10.2 µM | 14.1 µM | 21.2 µM | 20.3 µM | 14 µM | 4.65 µM | 20.5 µM | 19.7 | –
10 | CC(=O)OC12c3ccccc3C1CCCCCC21OCCCO1 (centres undefined) | > 100 | > 100 | > 100 µM | > 100 µM | – | > 100 µM | > 100 µM | – | > 100 µM | > 100 | –
11 | N=C(N)SCCc1cn2ccccc2n1 | > 100 | > 100 | > 100 µM | > 100 µM | – | > 100 µM | > 100 µM | – | > 100 µM | > 100 | –
12 | COc1ccc(/C=C2\CSC/C(=C\c3ccc(OC)c(OC)c3OC)C2=O)c(OC)c1OC | 74.1 | 83.3 | > 100 µM | > 100 µM | > 100 µM | 40.2 µM | > 100 µM | – | > 100 µM | > 100 | –
